Key:
GIRK1/2(V-T) = target: T1, GIRK1/2(V-T) (UniProt P48542+P48549, V99T); experiment: TEVC in Xenopus oocytes, single mutant GIRK1/2(V-T); type: cell-based, human GIRK1, mouse GIRK2; details: GIRK1/2(V-T) single mutant
T1 construct: expressed in transfected cells; host or cells: Xenopus laevis oocytes (cRNA injection)
T1 sequence (P48549 1-501): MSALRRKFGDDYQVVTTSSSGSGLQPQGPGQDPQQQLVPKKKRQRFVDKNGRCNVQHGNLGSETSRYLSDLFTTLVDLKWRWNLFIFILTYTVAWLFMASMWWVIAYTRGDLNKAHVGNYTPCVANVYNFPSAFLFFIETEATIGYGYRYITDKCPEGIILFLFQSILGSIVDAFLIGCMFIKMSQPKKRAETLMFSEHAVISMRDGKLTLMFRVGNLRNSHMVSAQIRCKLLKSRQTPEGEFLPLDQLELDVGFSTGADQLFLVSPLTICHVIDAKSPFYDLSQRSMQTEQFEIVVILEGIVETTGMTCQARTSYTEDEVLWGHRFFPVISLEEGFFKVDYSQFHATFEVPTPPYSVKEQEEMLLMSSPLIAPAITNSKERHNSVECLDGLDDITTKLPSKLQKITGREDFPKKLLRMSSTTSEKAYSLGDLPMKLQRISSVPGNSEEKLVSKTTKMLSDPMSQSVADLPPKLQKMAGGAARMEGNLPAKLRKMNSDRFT
T1 sequence (P48542 1-425 V99T): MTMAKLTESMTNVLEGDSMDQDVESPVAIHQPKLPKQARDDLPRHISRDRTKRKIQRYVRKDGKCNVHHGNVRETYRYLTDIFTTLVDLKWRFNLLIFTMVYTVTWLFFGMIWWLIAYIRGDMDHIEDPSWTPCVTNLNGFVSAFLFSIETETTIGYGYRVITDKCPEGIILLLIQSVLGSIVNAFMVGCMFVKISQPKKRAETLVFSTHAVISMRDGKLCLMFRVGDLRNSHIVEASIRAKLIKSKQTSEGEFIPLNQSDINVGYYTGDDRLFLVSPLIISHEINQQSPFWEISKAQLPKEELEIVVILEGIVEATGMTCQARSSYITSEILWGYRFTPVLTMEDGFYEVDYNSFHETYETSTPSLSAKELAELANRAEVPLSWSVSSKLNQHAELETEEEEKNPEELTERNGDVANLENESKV
Text: (§1) Molecular biology: For Xenopus oocyte expression, human GIRK1 and human GIRK4 cDNAs were subcloned into pGEMHE. For mammalian expression, human GIRK1 and human GIRK4 cDNAs were subcloned into pcDNA3 and pcDNA3.1/V5-His B, respectively (Invitrogen). Mouse GIRK2 cDNA was subcloned in the dual-function vector, pXoom. Point mutations were introduced using a standard Pfu-based mutagenesis technique according to the QuikChange protocol (Agilent). Mutations were verified by sequencing.
(§2) Electrophysiology of oocytes: Whole-oocyte currents were measured by conventional two-electrode voltage clamp (TEVC) with a GeneClamp 500 amplifier (Axon Instruments). Agarose cushion microelectrodes were filled with 1.5% (w/v) agarose in 3 M KCl and were used with resistances between 0.1 and 1.5 megaohms. […] Barium-sensitive basal currents from both groups, 1) Vehicle, 2) single concentration at 10 μM and 3) multiple concentrations of ML297 or GAT compounds in the presence of HK solution, were assessed at −80 mV using TEVC. Barium-sensitive currents were normalized to average basal current in the vehicle solutions. The HK solution contained the following: 96 mM KCl, 1 mM NaCl, 1 mM MgCl2, 5 mM KOH/HEPES, pH 7.4. The barium solution consisted of HK+10 mM BaCl2. Five to ten oocytes from the same batch (same frog) were recorded for each group, and the experiments were repeated in at least four batches. Data acquisition and analysis were carried out using pClamp9 (Molecular Devices) and OriginPro (Microcal) software.
(§3) To test these computational predictions, the inventors mutated each or both of the two M1 key wild-type GIRK4 subunit residues to the corresponding GIRK2 residues (GIRK4-V92I, GIRK4-T94V, GIRK4-V92I/T94V or GIRK4-dm) and vice-versa the GIRK2 residues to the corresponding GIRK4 ones (GIRK2-I97V, GIRK2-V99T, GIRK2-I97V/V99T or GIRK2-dm) (FIG. 35). […]

GIRK1/4(T-V) = target: T2, GIRK1/4(T-V) (Homo sapiens, UniProt P48544+P48549, T94V); experiment: TEVC in Xenopus oocytes, single mutant GIRK1/4(T-V); type: cell-based; details: GIRK1/4(T-V) single mutant
T2 construct: expressed in transfected cells; host or cells: Xenopus laevis oocytes (cRNA injection)
T2 sequence (P48549 1-501): T1 sequence (P48549 1-501)
T2 sequence (P48544 1-419 T94V): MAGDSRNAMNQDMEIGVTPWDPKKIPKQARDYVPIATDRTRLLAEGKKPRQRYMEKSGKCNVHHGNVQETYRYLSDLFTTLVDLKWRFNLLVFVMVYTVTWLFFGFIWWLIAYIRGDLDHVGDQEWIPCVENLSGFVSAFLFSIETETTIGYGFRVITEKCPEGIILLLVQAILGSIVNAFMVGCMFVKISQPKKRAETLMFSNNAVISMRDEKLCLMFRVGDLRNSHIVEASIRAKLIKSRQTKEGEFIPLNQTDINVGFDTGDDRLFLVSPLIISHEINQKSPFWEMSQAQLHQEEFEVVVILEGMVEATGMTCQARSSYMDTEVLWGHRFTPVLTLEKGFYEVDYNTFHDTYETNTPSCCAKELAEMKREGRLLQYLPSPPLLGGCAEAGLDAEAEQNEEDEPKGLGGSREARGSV
Text: as §1, §2, §3

[1] = read-out: EMAX, % of the control GIRK1/2

EC50 (GIRK1/2(V-T)): 530 ± 70 nM
EMAX (GIRK1/2(V-T)): 1.92±0.03
Emax (GIRK1/2(V-T); [1]): 65%
EC50 (GIRK1/4(T-V)): 500 ± 470 nM
EMAX (GIRK1/4(T-V)): 1.12±0.03
Emax (GIRK1/4(T-V); [1]): 7%
SMILES: Cc1cc(NC(=O)Nc2ccc(Br)s2)n(-c2ccccc2)n1 [GAT1508, 1-(5-bromothiophen-2-yl)-3-(3-methyl-1-phenyl-1H-pyrazol-5-yl)urea]

Source: patent publication US12351574B2, “Selective ligands for modulation of GIRK channels” (Northeastern University, priority 2018, dated 2025)
